One assay has as its target rat TRPM8 (rTRPM8) (Rattus norvegicus, UniProt Q8R455). Put plainly: Whole-cell patch clamp of rat TRPM8 expressed in HEK-293T cells. It counts as cell-based. On the procedure: (§1) Transformed human embryonic kidney-293 (HEK-293T) cells were grown in Dulbecco's modified Eagle's medium (DMEM)+F-12 supplemented with 10% fetal calf serum, and 1% penicillin/streptomycin in 5% CO2 at 37°C. Cells grown to 90% confluence in 35 mm Petri dishes were transiently transfected with plasmid DNA encoding a TRP channel construct (1 µg). Rat TRPV1 (rTRPV1) was cloned into an enhanced green fluorescent protein-containing vector (pTracer-CMV2; Invitrogen, Carlsbad, CA). Chicken TRPV1 (cTRPV1), the chicken rat TRPV1 chimera (crcTRPV1), rat TRPV2 (rTRPV2), mouse TRPV3 (mTRPV3), mouse TRPV4 (mTRPV4), rat TRPM8 (rTRPM8), and rat TRPA1 (rTRPA1), were cloned into pcDNA3 and co-transfected with enhanced green fluorescent protein (0.1 µg) to follow expression. The cTRPV1 and crcTRPV1 clones were kindly provided by Dr. David Julius. Recordings were carried out 24–36 hours after transfection. Cells were split via trypsin EDTA, plated on glass coverslips at 5–10% confluence, and used 2–3 hours later.
(§2) Electrophysiological experiments were performed using the whole-cell patch-clamp technique at room temperature. Modified Ringer's solution with low chloride and nominal calcium contained (in mM): 130 sodium hydroxide, 5 potassium chloride, 1 magnesium chloride, 10 sodium 4-(2-hydroxyethyl)-1-piperazineethanesulfonic acid, 10 2-(N-morpholino)ethanesulfonic acid, and 20 glucose (pH 7.4; 310 milli-osmolar). […] 2 mM calcium chloride was included in the external solution where noted. To activate TRPV1, the modified Ringer's solution was made at pH 5 (low pH solution) and the chloride concentration was kept to a minimum to prevent contamination of the TRPV1 currents with acid-activated chloride currents. For recordings from heterologously expressing cells, the internal pipette solution contained (in mM): 125 cesium-Methanesulfonate, 10 cesium (1.2-bis(o-aminophenoxy)ethane-N,N,N',N'-tetraacetic acid, 8 sodium chloride, 4 magnesium adenosine triphosphate, and 10 HEPES (pH 7.2; 290 mOSM; nominal free calcium concentrations). For TRPA1 and dorsal root ganglion recordings, the internal pipette solution contained (in mM): 110 cesium-Methanesulfonate, 0.5 cesium4BAPTA, 8 sodium chloride, 0.2 calcium chloride, 4 magnesium-ATP, 4 sodium-GTP, and 10 4-(2-hydroxyethyl)-1-piperazineethanesulfonic acid (pH 7.2; 290 mOSM; 100 nM free calcium internal). MaxChelator was used to calculate the free calcium concentration (http://www.stanford.edu/cpatton/maxc.html).
(§3) Recordings were obtained using an Axopatch 200B amplifier, Digidata 1322A analog-to-digital converter, and pClamp 8.01 software (Molecular Devices, Union City, CA). Data were low-pass filtered at 2 kHz and digitized at 5 kHz. Borosilicate glass pipettes (World Precision Instruments, Sarasota, FL) were typically 3 MΩ pipette resistance after fire polishing. Cell capacitance was measured for each cell, and access resistance compensated to ∼80%. Recordings were begun ∼5 minutes after initial rupture to ensure initial steady state conditions. Current-voltage (I-V) relations were obtained using a ramp protocol. Voltage ramps (400 ms) from −100 to +40 or +100 mV were applied every 1–2 seconds and the holding potential was either −70 mV or 0 mV (see Figure Legends). A 40 ms step was added at the beginning and end of the ramp (i.e. at −100 mV, +40 mV or +100 mV). Liquid junction potentials were not corrected.
The dose response curves were fit with the Hill equation, where [drawing 8] and [A] is the concentration of agonist or blocker, N is the Hill coefficient, and KD is the [A] for Imeasured/Imax = 0.5. The term apparent dissociation constant is used in place of the half concentration of excitation and inhibition. […] Averaged data are presented as mean±standard error (S.E.) throughout. Statistical analysis included paired and unpaired Student's t-test comparisons of the data; p values are reported in the text.
(The patch-clamp technique gives a direct electrical read-out from membranes.)

For assay [1], the system named is dorsal root ganglion neurons. Description: Whole-cell patch clamp of acutely isolated dorsal root ganglion neurons. It counts as cell-based, rat.
Excerpt: Dorsal root ganglion neurons from all spinal levels were removed from postnatal day 12 to 20 Sprague Dawley rats and the nerve roots trimmed. Calcium- and magnesium-free (CMF) Hank's solution contained (in mM): 136.9 sodium chloride, 5.4 potassium chloride, 0.34 dibasic sodium orthophosphate, 0.44 monopotassium phosphate, 5.6 glucose, 5 4-(2-hydroxyethyl)-1-piperazineethanesulfonic acid, 0.005% phenol red, pH 7.4. CMF Hank's was used throughout the isolation and enzymatic treatments. The isolated ganglia were treated for 20 minutes at 37°C with 20 U/ml of papain (Worthington Biochemical, Lakewood, NJ) and 5 mM cysteine. The ganglia were then transferred to CMF Hank's with 3 mg/ml collagenase (type I; Worthington) and 4 mg/ml dispase (neutral type II; Roche Applied Science, Indianapolis, IN) for 20 minutes at 37°C. Individual neurons were dispersed by trituration through a fire-polished glass Pasteur pipette in 3 ml of media containing DMEM, 5% horse serum, 10% fetal bovine serum, 1% penicillin/streptomycin, and 100 ng/ml Nerve Growth Factor (7S subunit; Invitrogen). The neurons were preplated in tissue culture-treated Petri dishes for 1 hour when used for electrophysiology (3 hours for calcium imaging), and then plated on poly-L-lysine (1 mg/ml)-coated glass coverslips. Dorsal root ganglion neurons were allowed to settle for 1–2 hours at 37°C before patching or imaging over the next 6 hours.
as §2, §3

Assay [2] relates to dorsal root ganglion neurons. Put plainly: Fura-2 calcium imaging of dorsal root ganglion neurons. Particulars: 1 mM citral; freshly isolated neurons. It counts as cell-based, rat. An excerpt:
Dorsal root ganglion neurons from all spinal levels were removed from postnatal day 12 to 20 Sprague Dawley rats and the nerve roots trimmed. Calcium- and magnesium-free (CMF) Hank's solution contained (in mM): 136.9 sodium chloride, 5.4 potassium chloride, 0.34 dibasic sodium orthophosphate, 0.44 monopotassium phosphate, 5.6 glucose, 5 4-(2-hydroxyethyl)-1-piperazineethanesulfonic acid, 0.005% phenol red, pH 7.4. CMF Hank's was used throughout the isolation and enzymatic treatments. The isolated ganglia were treated for 20 minutes at 37°C with 20 U/ml of papain (Worthington Biochemical, Lakewood, NJ) and 5 mM cysteine. The ganglia were then transferred to CMF Hank's with 3 mg/ml collagenase (type I; Worthington) and 4 mg/ml dispase (neutral type II; Roche Applied Science, Indianapolis, IN) for 20 minutes at 37°C. […]
Dorsal root ganglion neurons were loaded with 5 µM fura-2 AM and 0.02% pluronic acid in media at 37°C for 60 minutes. […] The MetaFluor imaging system (Universal Imaging Corporation) was used to record fluorescence at 340 and 380 nm excitation wavelengths. Background fluorescence, measured as the ratio 340/380 in a “cell-free” zone during the experiment, was subtracted from the data. […]

A further assay deals with Chicken TRPV1 (cTRPV1). Description: Whole-cell patch clamp of chicken TRPV1 expressed in HEK-293T cells. It counts as cell-based. The protocol: as §1
Electrophysiological experiments were performed using the whole-cell patch-clamp technique at room temperature. […]
Recordings were obtained using an Axopatch 200B amplifier, Digidata 1322A analog-to-digital converter, and pClamp 8.01 software (Molecular Devices, Union City, CA). […] Cell capacitance was measured for each cell, and access resistance compensated to ∼80%. […]

For assay [3] the following is noted: in humans; cited from earlier work.

Like-named read-outs stand apart in the source and are kept apart here. Bounds are passed on as bounds.

rat TRPM8 (rTRPM8), sequence (Q8R455 whole entry): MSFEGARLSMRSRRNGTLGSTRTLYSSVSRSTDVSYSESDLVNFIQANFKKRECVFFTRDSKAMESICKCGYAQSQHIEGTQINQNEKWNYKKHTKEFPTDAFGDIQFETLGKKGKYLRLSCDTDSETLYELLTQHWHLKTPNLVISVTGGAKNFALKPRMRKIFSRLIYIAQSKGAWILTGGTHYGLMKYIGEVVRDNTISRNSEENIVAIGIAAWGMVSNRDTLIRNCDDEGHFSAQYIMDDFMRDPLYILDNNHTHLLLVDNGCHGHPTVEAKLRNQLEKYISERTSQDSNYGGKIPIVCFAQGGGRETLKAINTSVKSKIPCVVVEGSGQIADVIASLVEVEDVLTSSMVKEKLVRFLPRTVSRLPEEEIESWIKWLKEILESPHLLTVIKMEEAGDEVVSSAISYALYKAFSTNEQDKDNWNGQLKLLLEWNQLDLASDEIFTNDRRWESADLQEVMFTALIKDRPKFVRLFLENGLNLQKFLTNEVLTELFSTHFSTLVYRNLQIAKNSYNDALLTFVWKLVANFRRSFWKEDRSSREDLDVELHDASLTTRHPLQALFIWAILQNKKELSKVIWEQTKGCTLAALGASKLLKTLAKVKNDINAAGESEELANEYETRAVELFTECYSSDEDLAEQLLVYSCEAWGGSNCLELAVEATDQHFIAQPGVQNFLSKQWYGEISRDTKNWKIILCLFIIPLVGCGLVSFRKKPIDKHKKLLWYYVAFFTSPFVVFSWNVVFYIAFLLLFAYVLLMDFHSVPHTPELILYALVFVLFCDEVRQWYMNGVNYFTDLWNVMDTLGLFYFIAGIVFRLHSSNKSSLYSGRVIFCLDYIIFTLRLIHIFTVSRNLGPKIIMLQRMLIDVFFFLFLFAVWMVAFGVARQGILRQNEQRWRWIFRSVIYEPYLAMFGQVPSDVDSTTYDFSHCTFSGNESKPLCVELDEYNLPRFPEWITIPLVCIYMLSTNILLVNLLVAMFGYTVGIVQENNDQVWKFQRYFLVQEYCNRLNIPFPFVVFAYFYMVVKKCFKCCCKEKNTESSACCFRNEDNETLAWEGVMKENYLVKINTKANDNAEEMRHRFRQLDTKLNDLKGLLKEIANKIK

For the compound `CC(C)=CCCC(C)=CC=O` [citral, 3,7-dimethyl-2,6-octadienal], the “Hill coefficient (activation)” value at rat TRPM8 (rTRPM8) is on record as 1.6. Moreover, the “Reversibility of citral inhibition of agonist-evoked current” value at rat TRPM8 (rTRPM8) was “essentially irreversible”. Further, the “Hill coefficient (inhibition)” value was found to be 1.7 at rat TRPM8 (rTRPM8) (+40 mV) and 2.0 at rat TRPM8 (rTRPM8) (−40 mV). Besides, the “Increase in TRPM8 current evoked by menthol after citral washout” value at rat TRPM8 (rTRPM8) (after 60 seconds washout, n = 3) came out at 4±2%. In addition, the Kd at rat TRPM8 (rTRPM8) (citral activation, nominal external calcium, read-out: Activation KD, app) came out at 33.5 µM; at rat TRPM8 (rTRPM8) (citral block of menthol (1 mM)-evoked current, +40 mV, read-out: Inhibition KD, app), 188 µM; at rat TRPM8 (rTRPM8) (citral block of menthol (1 mM)-evoked current, −40 mV, read-out: Inhibition KD, app), 241 µM. On rat TRPM8 (rTRPM8) (fold larger, −40 mV, n = 5), the “Agonist efficacy Imenthol (30 µM)/Icitral (300 µM)” value is on record as “Imenthol (30 µM)/Icitral (300 µM) 74±28 fold larger (n = 5; −40 mV)”. For the same compound, at rat TRPM8 (rTRPM8) (menthol-induced, n = 4), the “Effect of citral addition on agonist-induced current” value is listed as “not increased”. The “Time for >50% inhibition of peak TRP current in continued presence of citral” value on rat TRPM8 (rTRPM8) (n = 7) is at most 14 s. The “Increase of inward ITRPM8 above baseline” value at rat TRPM8 (rTRPM8) (−40 mV) is 2 fold. The “Block of TRPV1-like currents evoked by capsaicin” value in assay [1] (1 µM capsaicin) is recorded as 94%. Moreover, the “Effect on fast inward current (primarily voltage-gated sodium channels)” value in assay [1] (1 mM citral) is listed as “partially blocked”. The “Increase of outward currents” value in assay [1] (1 mM citral, n = 8) was determined as 2.7±0.5 fold. Also, in assay [1] (5 minutes after washout, n = 8), the “Capsaicin response recovered after citral washout” value turned out to be 3±1.5%. Besides, the “Potentiation of TRPV1-like current prior to inhibition” value in assay [1] (capsaicin activation, n = 17) came to 1.1±0.03 fold; in assay [1] (pH 5 activation, n = 20), 1.5±0.1 fold. Besides, in assay [1] (citral at pH 5), the “Initial (constitutive) outward current inhibited” value is 79%. The “Block of TRPV1-like currents evoked by pH 5 solution” value in assay [1] (pH 5) was 100%. For the same compound, in assay [2], the “Neurons with increased internal calcium concentration among capsaicin-responsive neurons” value is reported as 12 of 35. Besides, the “Activation of cTRPV1 current” value with Chicken TRPV1 (cTRPV1) (n = 6) is “did not activate”. Further, the “Effect on cTRPV1 currents activated by pH 5 solution” value in the assay with Chicken TRPV1 (cTRPV1) (pH 5) is reported as “reversibly inhibited”. Besides, the “Concentration at which therapeutic effects have been attributed” value in assay [3] was 1 to 100 µM.
